The results in this text go back to PMC4645160, “Targeting kinases with anilinopyrimidines: discovery of N-phenyl-N’-[4-(pyrimidin-4-ylamino)phenyl]urea derivatives as selective inhibitors of class III receptor tyrosine kinase subfamily” (Scientific Reports, 2015).

As a reminder, the IC50 is the concentration that inhibits the measured activity by half.

Several values for one entry are separate records, joined by “and”; a condition that tells them apart may be missing. Identical values can stand only once.

The subject of data set [1] is Lewis Lung Carcinoma (LLC). The data set is described as follows: In vivo anticancer activity toward Lewis Lung Carcinoma (LLC). As to conditions: LLC in C57BL mice, 27 at 7.5 mg/kg, CDDP at 1.5 mg/kg. From the text:
(§1) Besides, it was as cytotoxic as 19 towards cancer cells while showing a more favorable selectivity index. On these basis, compound 27 was chosen for in vivo experiments against a syngeneic murine solid tumor model, the murine Lewis Lung Carcinoma (LLC). The tumor growth inhibition induced by 27 was compared with that promoted by cisplatin (CDDP), the most common chemotherapeutic drug used in the treatment of lung cancers. Nine days after tumor inoculation, tumor-bearing mice were randomized into vehicle control and treatment groups (8 mice per group). Control mice received the vehicle (0.2%v/v EtOH and 99.8%v/v of a saline solution), whereas treated groups received daily doses of 27 (7.5 mg · kg^−1 in the vehicle solution composed of 0.2%v/v EtOH and 99.8%v/v of saline solution) or CDDP (1.5 mg · kg^−1 in saline solution). Tumor growth was estimated at day 20 (Fig. 7a). As an indication of the adverse side effects, changes in the body weights of tumor-bearing mice were monitored at day 1 and daily from day 9.
Figure 7 In vivo testing of compound 27. Lewis lung carcinoma (LLC) was implanted i.m. (2 · 10^6 cells inoculum) into the right hind leg of 8-week old imbred C57BL mice. Nine days after tumor inoculation (palpable tumor), tumor-bearing mice were randomized into vehicle control and treatment groups (8 mice per group). Compound 27 was dosed daily at 7.5 mg/kg ip and CDDP was dosed daily at 1.5 mg/kg ip. At day 20, animals were sacrificed (i.e., before tumor can cause the animal discomfort), the legs were amputated at the proximal end of the femur, and the inhibition of tumor growth was determined according to the difference in weight of the tumor-bearing leg and the healthy leg of the animals expressed as % referred to the control animals. Control was constituted by vehicle (0.2%v/v EtOH and 99.8%v/v of saline solution). CDDP was used as positive reference. Both 27 and CDDP were administered at the highest not toxic doses (7.5 and 1.5 mg/kg, respectively), as determined by MTD studies. (a) Average tumor weight (g) after 20 days of treatment with control or compounds. (b) Percentage of reduction in tumor growth after 20 days of treatment with respect to control mice. (c) Body weight changes. The body weight changes of LLC bearing C57BL mice treated with vehicle or tested compounds. Each drug was administered daily after 9 days from the tumor cell inoculum. Weights were measured at day 1 and daily from day 9. Error bars indicate the standard deviation.
All studies involving animal testing were carried out in accordance with the ethical guidelines for animal research adopted by the University of Padua, acknowledging the Italian regulation (D.L.G.S. 116/92) and European Directive 86/609/EEC as to the animal welfare and protection and the related codes of practice. […]

Data set [2] in a line: Body weight changes of LLC bearing mice. In kind it is in vivo. As to conditions: mouse, in vivo, ip, 1.5 mg/kg.
From the text: as §1, with “Control mice received the vehicle (0.2%v/v EtOH and 99.8%v/v of a saline solution), whereas treated groups received daily doses of 27 (7.5 mg · kg^−1 in the vehicle solution composed of 0.2%v/v EtOH and 99.8%v/v of saline solution) or CDDP (1.5 mg · kg^−1 in saline solution). Tumor growth was estimated at day 20 (Fig. 7a).” left out
Figure 7 In vivo testing of compound 27. […] At day 20, animals were sacrificed (i.e., before tumor can cause the animal discomfort), the legs were amputated at the proximal end of the femur, and the inhibition of tumor growth was determined according to the difference in weight of the tumor-bearing leg and the healthy leg of the animals expressed as % referred to the control animals. […] Both 27 and CDDP were administered at the highest not toxic doses (7.5 and 1.5 mg/kg, respectively), as determined by MTD studies. […] Weights were measured at day 1 and daily from day 9. […]

Data set [3] in a line: MTD studies (highest not toxic dose). As to conditions: daily ip. In kind it is in vivo.
Another data set relates to A549 cells. The data set is described as follows: MTT cytotoxicity assay, A549 lung cancer cells. In kind it is cell-based, human. The method, then: (§2) Compounds active against at least one kinase among EGFR and class III RTKs were evaluated for their cytotoxic properties against two different human cancer cell lines, namely non small cells A549 lung cancer cells (sensitive to EGFR inhibitors)[46] and pancreatic BxPC3 adenocarcinoma (sensitive to both PDGFRβ and EGFR inhibitors)[47][48] cells. […] The results, expressed as IC50 values (μM) calculated from the dose-survival curves obtained after 72 h of drug treatment from the MTT test, are reported in Table 1.
(§3) All compounds, except derivative 27, were dissolved in DMSO just before the experiment, and a calculated amount of drug solution was added to the cell growth medium to a final solvent concentration of 0.5%, which had no discernible effect on cell killing. Compound 27 was dissolved in a 0.9% NaCl solution just before the experiment.
(§4) Human lung (A549), breast (MCF-7), pancreas (BxPC3), and colon (LoVo) carcinoma cell lines along with melanoma (A375) were obtained from American Type Culture Collection (ATCC, Rockville, MD). Human non-tumor embryonic kidney HEK293 cells were obtained from European Collection of Cell Cultures (ECACC, Salisbury, UK). Human cervical carcinoma A431cells were kindly provided by Prof. F. Zunino (Division of Experimental Oncology B, Istituto Nazionale dei Tumori, Milan, Italy). Human ovarian cancer 2008 cells were kindly provided by Prof. G. Marverti (Dept. of Biomedical Science of Modena University, Italy). Cell lines were maintained in the logarithmic phase at 37 °C in a 5% carbon dioxide atmosphere using the following culture media containing 10% fetal calf serum (Euroclone, Milan, Italy), antibiotics (50 units ∙ mL^−1 penicillin and 50 μg ∙ mL^−1 streptomycin) and 2 mM l-glutamine: i) RPMI-1640 medium (Euroclone) for MCF-7, A431, BxPC3 and 2008 cells; ii) F-12 HAM’S (Sigma Chemical Co.) for A549 and LoVo cells; iii) D-MEM medium (Euroclone) for HEK293 cells.
(§5) The growth inhibitory effect towards human cell lines was evaluated by means of MTT (tetrazolium salt reduction) assay. Briefly, 3–8 ∙ 10^3 cells/well, dependent upon the growth characteristics of the cell line, were seeded in 96-well microplates in growth medium (100 μL) and then incubated at 37 °C in a 5% carbon dioxide atmosphere. After 24 h, the medium was removed and replaced with a fresh one containing the test compound at the appropriate concentration. Triplicate cultures were established for each treatment. After 72 h, each well was treated with 10 μL of a 5 mg ∙ mL-1 MTT (3-(4,5-dimethylthiazol-2-yl)-2,5-diphenyltetrazolium bromide) saline solution, and after 5 h additional incubation, 100 μL of a sodium dodecylsulfate (SDS) solution in HCl 0.01 M were added. After overnight incubation, the inhibition of cell growth induced by the tested complexes was detected by measuring the absorbance of each well at 570 nm using a Bio-Rad 680 microplate reader (Bio-Rad, Hercules, CA). Mean absorbance for each drug dose was expressed as a percentage of the control untreated well absorbance and plotted vs drug concentration.
For orientation: Tetrazolium assays rely on reduction of a dye to a coloured formazan, in cell work by metabolically active cells.

The subject of another data set is BxPC3 cells. In words: MTT cytotoxicity assay, BxPC3 pancreatic adenocarcinoma cells. In kind it is cell-based, human. The method, then:
as §2, §3, §4, §5

The test system of another data set is HEK293 cells. In words: MTT cytotoxicity assay, non-tumor HEK293 cells. In kind it is cell-based, human. The method, then:
F. Zunino (Division of Experimental Oncology B, Istituto Nazionale dei Tumori, Milan, Italy).
The growth inhibitory effect towards human cell lines was evaluated by means of MTT (tetrazolium salt reduction) assay. […] Triplicate cultures were established for each treatment.

Another data set relates to panel of 48 kinases. In words: KinomeScan primary screening (POC) at 10 μM. In kind it is binding, human. As to conditions: POC values. The source says:
Synthesized compounds were screened against a panel of 48 kinases selected within the ScanEDGE subset of DiscoverX (http://www.discoverx.com/services/drug-discovery-development-services/kinase-profiling/kinomescan/scanedge). The ScanEDGE includes 97 kinases and is an economical approach to assess compounds selectivity throughout the human kinome. All the wt-TKs along with some relevant mutants of Abl1 (T315I) and of EGFR (L858R and L858R/T790M) were chosen. The remaining 18 targets (3 Tyrosine Kinases-Like, TKLs; 15 Serine-Threonine Kinases, STKs) were selected among the remaining kinases in the ScanEDGE subset on the basis of their well established role in cancer (see Fig. S2 for a graphical representation of the selected kinases with reference to the kinome tree. Some references highlighting the role of each kinase in cancer are also reported in Table S3).
The compounds were evaluated using the KinomeScan™ platform (http://www.discoverx.com/services/drug-discovery-development-services/kinase-profiling/kinomescan), that measures the ability of the test compound to disrupt the complex between a high affinity ATP-mimic probe immobilized on a solid support and the kinase of interest. The KinomeScan is a very helpful technology for the fast and reliable screening of a number of compounds against a wide and customizable panel of kinases. Besides, it is not based on the use of hazardous radioactive ^32P-ATP and has a very low rate of false positive (<1%)[44]. The screening platform outputs a “Percent of Control” (POC) value, statistically correlated to the dissociation constant (Kd) value (http://www.discoverx.com/tools-resources/leadhunter-study-reports-data-analysis), for each pair of kinase/ligand. The POC is calculated as reported in equation (1):
Where: test compound signal = amount of kinase still binding the probe after treatment with test compound; negative control signal = amount of kinase still binding the probe after treatment with DMSO (100% control); positive control signal = amount of kinase still binding the probe after treatment with control compound (0% control).
(§6) The compounds were tested at high concentration (10 μM), in order to highlight not only the main target but also the off-targets. The results of the preliminary screening are reported as heat map (Fig. 4; see also Table S4 for all the measured values), in which the compounds are grouped on the basis of the 6 or 5 substituent at the pyrimidine ring.

In a further data set the target is T1, EGFR (Homo sapiens, UniProt P00533).
T1 construct: purchased DiscoverX (KinomeScan, ScanEDGE subset)
T1 sequence (P00533 25-1210): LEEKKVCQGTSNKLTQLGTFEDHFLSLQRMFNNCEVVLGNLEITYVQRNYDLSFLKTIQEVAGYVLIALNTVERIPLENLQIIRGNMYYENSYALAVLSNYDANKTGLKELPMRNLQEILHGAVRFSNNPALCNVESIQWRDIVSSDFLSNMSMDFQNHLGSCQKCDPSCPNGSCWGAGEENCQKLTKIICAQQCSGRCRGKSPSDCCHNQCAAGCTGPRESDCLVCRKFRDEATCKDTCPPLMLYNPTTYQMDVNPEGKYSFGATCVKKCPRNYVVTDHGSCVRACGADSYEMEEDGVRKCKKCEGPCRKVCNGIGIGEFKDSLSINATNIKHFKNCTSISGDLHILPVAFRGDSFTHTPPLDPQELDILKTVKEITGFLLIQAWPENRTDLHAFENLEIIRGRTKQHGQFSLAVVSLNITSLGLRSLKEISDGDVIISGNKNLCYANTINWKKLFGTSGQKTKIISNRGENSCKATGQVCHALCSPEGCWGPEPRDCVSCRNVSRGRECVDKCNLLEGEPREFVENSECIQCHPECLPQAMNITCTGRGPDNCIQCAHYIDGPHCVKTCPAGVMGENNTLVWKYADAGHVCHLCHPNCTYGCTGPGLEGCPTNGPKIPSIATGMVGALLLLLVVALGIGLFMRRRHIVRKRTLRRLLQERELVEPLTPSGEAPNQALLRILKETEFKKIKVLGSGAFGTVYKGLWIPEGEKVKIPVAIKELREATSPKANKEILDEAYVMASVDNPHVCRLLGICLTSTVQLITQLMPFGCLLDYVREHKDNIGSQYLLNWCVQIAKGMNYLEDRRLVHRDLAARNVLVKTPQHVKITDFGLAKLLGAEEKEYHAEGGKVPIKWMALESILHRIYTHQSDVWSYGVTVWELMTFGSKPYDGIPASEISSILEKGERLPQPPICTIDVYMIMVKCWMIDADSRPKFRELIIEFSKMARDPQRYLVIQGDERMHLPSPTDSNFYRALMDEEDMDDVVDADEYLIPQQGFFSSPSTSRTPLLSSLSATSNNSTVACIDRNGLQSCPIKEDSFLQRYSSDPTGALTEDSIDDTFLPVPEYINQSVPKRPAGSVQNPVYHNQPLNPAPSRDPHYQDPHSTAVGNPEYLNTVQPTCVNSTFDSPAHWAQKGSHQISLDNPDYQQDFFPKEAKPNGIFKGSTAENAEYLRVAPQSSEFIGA
The data set is described as follows: KinomeScan primary screening (POC) at 10 μM, EGFR. In kind it is binding. As to conditions: POC values. The method, then: Synthesized compounds were screened against a panel of 48 kinases selected within the ScanEDGE subset of DiscoverX (http://www.discoverx.com/services/drug-discovery-development-services/kinase-profiling/kinomescan/scanedge). The ScanEDGE includes 97 kinases and is an economical approach to assess compounds selectivity throughout the human kinome. All the wt-TKs along with some relevant mutants of Abl1 (T315I) and of EGFR (L858R and L858R/T790M) were chosen. […]
The compounds were evaluated using the KinomeScan™ platform (http://www.discoverx.com/services/drug-discovery-development-services/kinase-profiling/kinomescan), that measures the ability of the test compound to disrupt the complex between a high affinity ATP-mimic probe immobilized on a solid support and the kinase of interest. […] The POC is calculated as reported in equation (1): […]
as §6

With `[NH2][Pt]([NH2])([Cl])[Cl]` [CDDP, cisplatin, reference compound], in data set [1] (daily ip from day 9, day 20, versus vehicle control), the “Inhibition of tumor growth (%)” value is 71.63% and 71.6%. Besides, the “Average tumor weight (mean±S.D., g)” value in data set [1] (daily ip from day 9, day 20) was determined as 0.139 ± 0.09 g. The “Body weight loss (in words)” value in data set [2] is on record as “elevated body weight loss”. In data set [3], the “Highest not toxic dose as determined by MTD studies” value is reported as 1.5 mg/kg.

On to `O=C(Nc1ccccc1)Nc1ccc(Nc2cc(Nc3ccccc3)ncn2)cc1` [Compound 7], for which the IC50 amounted to 5.13 ± 0.94 µM in the data set on A549 cells (Homo sapiens, A549, 72 h, MTT test, 72 h of drug treatment, read-out: A549 IC50 (μM) ± SD); 4.6 ± 0.85 µM with BxPC3 cells (Homo sapiens, BXPC-3, MTT test, 72 h of drug treatment, read-out: BxPC3 IC50 (μM) ± SD); 3.14 ± 0.57 µM in the data set on HEK293 cells (Homo sapiens, HEK293, MTT test, 72 h, non-tumor cells, read-out: HEK293 IC50 (μM) ± SD). In addition, the “Potency relative to SU (A549)” value in the data set on A549 cells (ratio between IC50 of sunitinib and IC50 of tested compound, A549) turned out to be 1.21. Also, in the data set with BxPC3 cells (ratio between IC50 of sunitinib and IC50 of tested compound, BxPC3), the “Potency relative to SU (BxPC3)” value was 1.10. Further, the “Selectivity Index” value with HEK293 cells (IC50 toward non cancerous HEK293 cells divided by the average IC50 for the malignant cells (A549, BxPC3)) turned out to be 0.64. Also, the “Selectivity profile (kinases targeted) in primary screening” value in the data set on panel of 48 kinases is “class III RTK”. The “Activity against EGFR in primary screening” value on EGFR was “very poor activity”.
